Data set [1] in a line: Water solubility of wogonin / uniform solution with arginine. The data set is classed as physicochemical. The settings on record: arginine 2%-10% (w/v). The text has this: In addition, in order to ensure that a pH of the solution remains stable within a range of 7.0-11.0, an appropriate amount of citric acid may need to be added to the formulation, with a content of 0.01%-0.05% (w/v).

The subject of data set [2] is human glioma cancer cells. Conditions: Tsai et al., Int J Mol Sci. 2012; cited from earlier work.

Consider `COc1c(O)cc(O)c2c(=O)cc(-c3ccccc3)oc12` [Wogonin, wogonin], for which the “content of wogonin at which a uniform solution may be obtained” value in data set [1] is on record as 0.1-5.0 % (w/v). The “reactive oxygen species production and cell apoptosis” value in data set [2] was “induces reactive oxygen species production and cell apoptosis”.

The record behind these values is US20260373078A1 (NANJING QINLING PHARMACEUTICAL TECHNOLOGY COMPANY LIMITED, priority 2023, published 2026).
